Data as given in patent publication US20100010057A1, “THIAZOLE DERIVATIVES AS INHIBITORS OF P13 KINASE” (CHROMA THERAPEUTICS LTD., priority 2006, published 2010).
pIC50: −log10 of the molar value.

Key:
THP-1 cells = assay: LPS-stimulation of THP-1 cells, TNF-α release; format: cell-based; settings: Homo sapiens, LPS 1 μg/ml, 6 h, TNF-α by ELISA, IC50 range, read-out: Inhibitor activity versus THP-1 TNFα release
Procedure: (C) LPS-Stimulation of THP-1 Cells
THP-1 cells are plated in 100 μl at a density of 4×10^4 cells/well in V-bottomed 96 well tissue culture treated plates and incubated at 37° C. in 5% CO2 for 16 h. 2 h after the addition of the inhibitor in 100 μl of tissue culture media, the cells are stimulated with LPS (E. coli strain 005:B5, Sigma) at a final concentration of 1 μg/ml and incubated at 37° C. in 5% CO2 for 6 h. TNF-α levels are measured from cell-free supernatants by sandwich ELISA (R&D Systems #QTA00B)
(§1) For each of the assays (B), (C) and (D) above, IC50 values are allocated to one of three ranges as follows: […]

human whole blood = assay: LPS-stimulation of human whole blood, TNF-α release; format: cell-based; settings: LPS 100 ng/ml, 6 h, TNF-α by ELISA, IC50 range, read-out: Inhibitor activity versus human whole blood TNFα release
Procedure: (D) LPS-Stimulation of Human Whole Blood
Whole blood is taken by venous puncture using heparinised vacutainers (Becton Dickinson) and diluted in an equal volume of RPMI1640 tissue culture media (Sigma). 100 μl is plated in V-bottomed 96 well tissue culture treated plates. 2 h after the addition of the inhibitor in 100 μl of RPMI1640 media, the blood is stimulated with LPS (E. coli strain 005:B5, Sigma) at a final concentration of 100 ng/ml and incubated at 37° C. in 5% CO2 for 6 h. TNF-α levels are measured from cell-free supernatants by sandwich ELISA (R&D Systems #QTA00B)
as §1

PI3Kγ (human) = PI3Kγ (human) (Homo sapiens, UniProt P48736); assay: Inhibition of PI3 kinase γ activity (HTRF); format: biochemical; settings: ATP at or close to Km, IC50 range, read-out: Inhibitor activity versus PI3 Kinase γ
PI3Kγ (human), sequence (P48736 whole entry): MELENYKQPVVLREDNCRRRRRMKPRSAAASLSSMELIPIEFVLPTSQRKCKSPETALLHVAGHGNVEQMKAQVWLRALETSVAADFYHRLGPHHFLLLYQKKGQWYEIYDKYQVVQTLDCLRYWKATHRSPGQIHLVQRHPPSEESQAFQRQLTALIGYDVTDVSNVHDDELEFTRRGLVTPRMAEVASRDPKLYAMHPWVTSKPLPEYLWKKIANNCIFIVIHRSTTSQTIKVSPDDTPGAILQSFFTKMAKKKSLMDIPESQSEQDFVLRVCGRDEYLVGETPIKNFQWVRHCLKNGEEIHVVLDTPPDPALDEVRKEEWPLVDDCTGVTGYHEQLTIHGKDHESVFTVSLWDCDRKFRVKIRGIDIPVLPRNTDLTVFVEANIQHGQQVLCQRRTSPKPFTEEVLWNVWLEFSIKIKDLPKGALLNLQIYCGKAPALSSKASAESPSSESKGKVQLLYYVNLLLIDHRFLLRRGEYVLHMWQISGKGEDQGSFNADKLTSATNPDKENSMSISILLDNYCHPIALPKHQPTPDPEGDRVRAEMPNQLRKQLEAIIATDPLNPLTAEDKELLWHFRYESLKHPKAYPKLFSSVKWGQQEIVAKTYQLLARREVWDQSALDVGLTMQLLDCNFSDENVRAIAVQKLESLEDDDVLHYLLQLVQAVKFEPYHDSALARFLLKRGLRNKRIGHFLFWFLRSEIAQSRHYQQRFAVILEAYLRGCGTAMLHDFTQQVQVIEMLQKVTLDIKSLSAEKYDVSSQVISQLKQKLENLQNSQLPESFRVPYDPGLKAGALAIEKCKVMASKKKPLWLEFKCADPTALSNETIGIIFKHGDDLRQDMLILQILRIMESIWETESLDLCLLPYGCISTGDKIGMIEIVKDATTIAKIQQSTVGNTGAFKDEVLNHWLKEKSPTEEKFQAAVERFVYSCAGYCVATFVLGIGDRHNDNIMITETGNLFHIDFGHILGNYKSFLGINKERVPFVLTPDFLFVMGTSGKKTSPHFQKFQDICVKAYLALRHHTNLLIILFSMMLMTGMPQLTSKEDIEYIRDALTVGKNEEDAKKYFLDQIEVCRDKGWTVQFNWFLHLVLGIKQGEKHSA
Procedure: (B) Inhibition of PI3 Kinase V Activity
In a final reaction volume of 20 μl, PI3Kγ (human) is incubated in assay buffer containing 10 μM phosphatidylinositol-4,5-bisphosphate and MgATP (concentration as required). The reaction is initiated by the addition of the MgATP mix. After incubation for 30 minutes at room temperature, the reaction is stopped by the addition of 5 μl of stop solution containing EDTA and biotinylated phosphatidylinositol-3,4,5-trisphosphate. Finally, 5 μl of detection buffer is added, which contains europium-labelled anti-GST monoclonal antibody, GST-tagged GRP1 PH domain and streptavidin-allophycocyanin. The plate is then read in time-resolved fluorescence mode and the homogenous time-resolved fluorescence (HTRF) signal is determined according to the formula HTRF=10000×(Em665 nm/Em620 nm).
Duplicate data points are generated from a ⅓ log dilution series of a stock solution of compound in DMSO. Nine dilutions steps are made from a top concentration of 10 μM, and a ‘no compound’ blank is included. The HTRF PI 3-Kinase assay is performed at an ATP concentration at, or close to, the Km. HTRF ratio data is transformed into % activity of controls and analysed with a four parameter sigmoidal dose-response (variable slope) application. QC criteria is based on Top, Bottom, Hill slope, r^2 and IC50, the concentration giving 50% inhibition, which is reported.
as §1

Row | pIC50 (THP-1 cells) | pIC50 (human whole blood) | pIC50 (PI3Kγ (human)) | Compound
1 | > 7.00 | 6.00 to 7.00 | < 6.00 | Cc1nc(NC(=O)CCCN[C@@H](CO)C(=O)OC2CCCC2)sc1-c1ccc(Cl)c(S(C)(=O)=O)c1 [Example 24, Cyclopentyl N-[4-({5-[4-chloro-3-(methylsulfonyl)phenyl]-4-methyl-1,3-thiazol-2-yl}amino)-4-oxobutyl]-L-serinate]
2 | 6.00 to 7.00 | < 6.00 | 6.00 to 7.00 | Cc1nc(NC(=O)CCCN[C@@H](CC(C)C)C(=O)OC2CCCC2)sc1-c1ccc(Cl)c(S(C)(=O)=O)c1 [Example 6, Cyclopentyl N-[4-({5-[4-chloro-3-(methylsulfonyl)phenyl]-4-methyl-1,3-thiazol-2-yl}amino)-4-oxobutyl]-L-leucinate]
3 | 6.00 to 7.00 | 6.00 to 7.00 | < 6.00 | Cc1nc(NC(=O)CCCN[C@@H](C)C(=O)OC2CCCC2)sc1-c1ccc(Cl)c(S(C)(=O)=O)c1 [Example 7, Cyclopentyl N-[4-({5-[4-chloro-3-(methylsulfonyl)phenyl]-4-methyl-1,3-thiazol-2-yl}amino)-4-oxobutyl]-L-alaninate]
4 | < 6.00 | – | < 6.00 | Cc1nc(NCC2CCC(N[C@@H](CC(C)C)C(=O)OC(C)(C)C)CC2)sc1-c1ccc(Cl)c(S(C)(=O)=O)c1 (stereo partly drawn) [Example 19, tert-Butyl N-{4-[({5-[4-chloro-3-(methylsulfonyl)phenyl]-4-methyl-1,3-thiazol-2-yl}amino)methyl]cyclohexyl}-L-leucinate]
